Experimental data published in patent US8652492B2, “Wet granulation using a water sequestering agent” (Rigel Pharmaceuticals, Inc., priority 2007, dated 2014).

Assay: Bulk density (uncompressed, untapped powder)
Assay type: physicochemical
Settings: Compound 1 as synthesized, cotton like fluffy agglomerates
Experimental: As used herein, the term “bulk density” refers to the uncompressed, untapped powder bulk density, as measured by pouring an excess of powder sample through a funnel into a smooth metal vessel (e.g., a 500 mL volume cylinder), scraping off the excess from the heap above the rim of the vessel, measuring the remaining mass of powder and dividing the mass by the volume of the vessel.
Three 500 g batches of Compound 1 powder blends (see Table 3) were prepared according to the following method. A KG-5 High Shear Granulator with an 8-inch impeller diameter was used to preblend all ingredients (except magnesium stearate) at low (155 rpm), medium (405 rpm), or high (600 rpm) impeller speeds with the chopper speed of 1200 rpm for 2 minutes. Water was added at a rate of 30 to 31.5 g/min to the powder mix. After the full amount of water was added, the mixture was blended for an additional 2 minutes. The wet granules were dried with the MiniGlatt Fluid Bed Dryer at 60° C. to targeted LODs and the granule texture, size, shape, stickiness, etc visually inspected. Drying at various temperatures and times are evaluated also. […] The final blends were checked for degradation by HPLC, and physical properties determined such as, Bulk Density, Tapped Density, Carr's Index, Hausner Ratio and Flow Index by Flodex. […]

- bulk density: 0.15 to 0.30 g/mL
Structure (SMILES): COc1cc(Nc2ncc(F)c(Nc3ccc4c(n3)N(COP(=O)([O-])[O-])C(=O)C(C)(C)O4)n2)cc(OC)c1OC.[Na+].[Na+] [Compound 1, (6-(5-fluoro-2-(3,4,5-trimethoxyphenylamino)pyrimidin-4-ylamino)-2,2-dimethyl-3-oxo-2H-pyrido[3,2-b][1,4]oxazin-4(3H)-yl)methyl phosphate disodium salt]
